For one experiment, the system named is experimental colitis. Set-up: method as in Borrelli et al., 2013. The conditions noted are these: model of inflammatory bowel disease; ref Borrelli et al., 2013; cited from earlier work.
The target of experiment [1] is CB1R. The conditions noted are these: cited from earlier work.
In another experiment the test system is TRPV1. Set-up: method as in De Petrocellis et al., 2011. The conditions noted are these: ref De Petrocellis et al., 2011; read-out: EC50, agonist of TRPV1; cited from earlier work.
In another experiment the test system is α2-adrenoceptor. Set-up: method as in Cascio et al., 2010. The conditions noted are these: ref Cascio et al., 2010; read-out: EC50 as α2-adrenoceptor agonist; cited from earlier work.
The next experiment addresses T1, human CB2 receptor (Homo sapiens, UniProt P34972).
T1 construct: expressed in transfected cells; membranes
The experiment in a line: [3H]-CP-55940 competition binding, CHO membranes. The conditions noted are these: radioligand 0.3 nM [3H]-CP-55940, CHO membranes.

For experiment [2], the system named is macrophages. Set-up: method as in Giacoppo et al., 2017. The conditions noted are these: in vitro; blocked by AM630, not by SR141716A; ref Giacoppo et al., 2017; cited from earlier work.
Another experiment has as its system T2, CB2R.
T2 construct: expressed in transfected cells; host or cells: HEK-293T, transient transfection (PEI)
Nature of the experiment: cAMP determination in HEK-293T cells. Type of experiment: cell-based, human. The procedure:
(§1) HEK-293T cells were grown in DMEM medium (Gibco, Paisley, Scotland, United Kingdom) supplemented with 2 mM L-glutamine, 100 U/mL penicillin/streptomycin, MEM Non-Essential Amino Acids Solution (1/100) and 5% (v/v) heat inactivated Foetal Bovine Serum (FBS) (Invitrogen, Paisley, Scotland, United Kingdom). […] Cells were transiently transfected with the PEI (Polyethylenimine, Sigma, St. Louis, MO, United States) method as previously described ([Medrano et al., 2017]; [Navarro et al., 2018b]) and used for functional assays 48 h later (unless otherwise stated).
(§2) Signaling experiments have been performed as previously described ([Navarro et al., 2010], [2016], [2018b]; [Hinz et al., 2018]). Two hours before initiating the experiment, HEK-293T cell-culture medium was replaced by serum-starved DMEM medium. Then, cells were detached, resuspended in growing medium containing 50 μM zardaverine and placed in 384-well microplates (2,500 cells/well). Cells were pretreated (15 min) with CBG -or vehicle- and stimulated with agonists (15 min) before adding 0.5 μM forskolin or vehicle. Readings were performed after 15 min incubation at 25°C. HTRF energy transfer measures were performed using the Lance Ultra cAMP kit (PerkinElmer, Waltham, MA, United States). Fluorescence at 665 nm was analyzed in a PHERAstar Flagship microplate reader equipped with an HTRF optical module (BMG Lab Technologies, Offenburg, Germany).

For experiment [3], the system named is T3, CB1R.
T3 construct: expressed in transfected cells; host or cells: HEK-293T, transient transfection (PEI)
Nature of the experiment: cAMP determination in HEK-293T cells. The experiment is classed as cell-based, human. The procedure: as §1, §2

In experiment [4] the target is T4, CB2R in a CB1–CB2 receptor heteromer context (Homo sapiens, UniProt P34972).
T4 construct: host or cells: HEK-293T, transient co-transfection (PEI)
The experiment in a line: Homogeneous HTRF competition binding in living HEK-293T cells expressing SNAP-CB2R and CB1R. The conditions noted are these: 20 nM fluorescent ligand, read-out: Ki, HTRF competition of fluorophore-conjugated CM-157 in the presence of CB1R. (Time-resolved FRET reads energy transfer from a long-lived donor to a nearby acceptor.)

Experiment [5] relates to macrophages. Set-up: method as in Borrelli et al., 2013. The conditions noted are these: ref Borrelli et al., 2013; cited from earlier work.
A further experiment concerns the target T5, SNAP-CB2R (Homo sapiens, UniProt P34972).
T5 construct: host or cells: HEK-293T, transient transfection (PEI)
The experiment in a line: Homogeneous HTRF competition binding in living HEK-293T cells (fluorophore-conjugated CM-157). The conditions noted are these: living HEK-293T cells expressing SNAP-CB2R, 20 nM fluorescent ligand.

For orientation: Ki means a measure of affinity in units of concentration, obtained from inhibition or displacement. Broadly, the EC50 is the concentration needed to bring the measured effect to its halfway point.

SMILES strings stand for the structures. Like-named read-outs stand apart in the source and are kept apart here.

T1 sequence (P34972 whole entry): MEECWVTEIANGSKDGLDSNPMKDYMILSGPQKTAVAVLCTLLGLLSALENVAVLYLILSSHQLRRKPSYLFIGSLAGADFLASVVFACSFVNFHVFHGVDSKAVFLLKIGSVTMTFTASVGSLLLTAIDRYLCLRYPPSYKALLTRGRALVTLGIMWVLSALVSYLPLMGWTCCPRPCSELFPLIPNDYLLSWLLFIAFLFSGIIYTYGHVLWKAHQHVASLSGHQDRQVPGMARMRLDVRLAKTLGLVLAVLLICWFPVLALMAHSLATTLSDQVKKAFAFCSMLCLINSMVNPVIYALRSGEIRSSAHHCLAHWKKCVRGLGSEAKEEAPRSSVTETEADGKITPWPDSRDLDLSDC
T4 sequence (P34972 whole entry): as above
T4 sequence (P21554 whole entry partner): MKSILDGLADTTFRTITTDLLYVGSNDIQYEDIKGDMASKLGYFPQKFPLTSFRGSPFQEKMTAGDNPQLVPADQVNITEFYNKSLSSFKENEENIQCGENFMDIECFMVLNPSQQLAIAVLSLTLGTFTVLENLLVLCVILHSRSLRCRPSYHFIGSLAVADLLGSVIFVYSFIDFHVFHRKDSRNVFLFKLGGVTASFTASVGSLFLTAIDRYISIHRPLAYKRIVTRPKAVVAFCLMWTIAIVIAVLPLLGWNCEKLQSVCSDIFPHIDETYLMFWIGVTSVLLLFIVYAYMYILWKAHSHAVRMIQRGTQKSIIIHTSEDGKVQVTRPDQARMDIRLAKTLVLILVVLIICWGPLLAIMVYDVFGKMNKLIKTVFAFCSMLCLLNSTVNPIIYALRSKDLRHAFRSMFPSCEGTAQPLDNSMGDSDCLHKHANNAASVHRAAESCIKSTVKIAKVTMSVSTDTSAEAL
T5 sequence (P34972 whole entry): as the sequence (P34972 whole entry) above

Consider `CCCCCc1cc(O)c(C/C=C(\C)CCC=C(C)C)c(O)c1` [CBG, cannabigerol], for which the “Effect on experimental colitis” value in the experiment with experimental colitis was “reduce the histological and molecular changes of experimental colitis”. For the same compound, the Ki on CB1R [1] (membranes from mice brain, preliminary results, ref Gauson et al., 2007, Pertwee, 2008) was 300 to 500 nM; at CB1R [1] (mouse brain membranes, ref Cascio et al., 2010), 381 nM; at human CB2 receptor, 1220 nM; in experiment [4] it was 56 nM; at SNAP-CB2R, 152 nM. The figures for the 50% effective concentration (EC50) with TRPV1 and with α2-adrenoceptor were 1300 nM and 0.2 nM, respectively. For the same compound, in the experiment on macrophages [2], the “Protection of macrophages against oxidative stress” value is “protection of macrophages against oxidative stress”. The “Effect on AEA and JWH133 effects on forskolin-induced cAMP levels” value in the experiment with CB2R (100 nM or 1 μM CBG pretreatment, 100 nM AEA or JWH133, CB2R) is “reduced the effects of AEA and JWH133”. The “Effect on forskolin-induced cAMP levels” value in the experiment with CB2R (CBG alone, 1 nM to 10 μM, CB2R-expressing cells) was “small and similar to that exerted in CB1R-expressing cells”. Moreover, the “Effect on AEA and ACEA induced effects on forskolin-induced cAMP” value with CB1R [3] (100 nM or 1 μM CBG pretreatment, 100 nM AEA or ACEA, CB1R) was “significant decrease”. In the experiment on CB1R [3] (CBG alone, 1 nM to 10 μM, CB1R-expressing cells), the “Effect on forskolin induced cAMP levels” value is reported as “small decrease”. In the experiment with macrophages [5], the “Nitrite release from macrophages after LPS stimulation” value is given as “reduce”.
